Experimental data taken from paper PMC9958325 (Nature Communications, 2023).
Several values for one entry are separate records, joined by “and”; a condition that tells them apart may be missing. Equal entries are not always repeated. Where two headings read alike, the source gives them in different places.

Legend:
[1] = target: T1, human calpain (Homo sapiens, UniProt P07384); assay: Human calpain activity assay; assay type: biochemical; details: triplicate, read-out: %inhibition against humanCalpain
T1 sequence (P07384 2-714): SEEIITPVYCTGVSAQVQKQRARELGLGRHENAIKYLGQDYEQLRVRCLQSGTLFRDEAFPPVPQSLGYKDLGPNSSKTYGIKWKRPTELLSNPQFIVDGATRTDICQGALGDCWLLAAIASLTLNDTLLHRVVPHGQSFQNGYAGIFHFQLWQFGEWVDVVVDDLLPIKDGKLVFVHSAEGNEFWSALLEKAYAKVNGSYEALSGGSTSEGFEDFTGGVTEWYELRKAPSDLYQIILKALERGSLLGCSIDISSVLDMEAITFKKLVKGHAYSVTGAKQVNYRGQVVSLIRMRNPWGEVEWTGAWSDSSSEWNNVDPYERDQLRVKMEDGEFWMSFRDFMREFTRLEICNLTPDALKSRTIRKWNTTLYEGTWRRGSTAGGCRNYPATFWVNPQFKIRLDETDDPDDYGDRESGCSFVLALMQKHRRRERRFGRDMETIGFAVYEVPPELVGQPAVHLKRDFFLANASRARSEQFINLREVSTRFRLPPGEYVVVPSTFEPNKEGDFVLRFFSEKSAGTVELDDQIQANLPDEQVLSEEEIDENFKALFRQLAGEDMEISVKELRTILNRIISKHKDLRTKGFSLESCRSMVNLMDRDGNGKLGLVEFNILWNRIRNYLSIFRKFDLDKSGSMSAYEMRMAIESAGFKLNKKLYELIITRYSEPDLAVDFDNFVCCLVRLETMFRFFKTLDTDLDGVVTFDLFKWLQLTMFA
T1 sequence (P04632 1-268 partner): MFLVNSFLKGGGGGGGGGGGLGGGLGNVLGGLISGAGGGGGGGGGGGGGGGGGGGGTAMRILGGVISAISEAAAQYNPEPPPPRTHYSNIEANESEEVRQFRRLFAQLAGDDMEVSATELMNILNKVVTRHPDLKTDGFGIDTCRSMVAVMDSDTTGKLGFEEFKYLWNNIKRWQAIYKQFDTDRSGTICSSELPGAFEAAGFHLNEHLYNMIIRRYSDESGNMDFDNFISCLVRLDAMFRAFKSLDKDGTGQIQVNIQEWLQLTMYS

[2] = tested on: SARS-CoV-2^WK-521; assay: microbe, parasite or virus in culture; assay type: cell-based; parameters: EC95, individual assays / EC95, Average: unit: µM
[3] = tested on: SARS-CoV-2 TKYX00012/ο BA.1; assay: microbe, parasite or virus in culture; assay type: cell-based
[4] = tested on: SARS-CoV-2 TKYS02037/ο BA.2; assay: microbe, parasite or virus in culture; assay type: cell-based
[5] = tested on: SARS-CoV-2 TKYTS14631/ο BA.5; assay: microbe, parasite or virus in culture; assay type: cell-based
[6] = tested on: SARS-CoV-2 UT-NCD1757-1N/ο BA.2.75; assay: microbe, parasite or virus in culture; assay type: cell-based
[7] = tested on: SARS-CoV-2^WK521 in HeLa-ACE2-TMPRSS2 cells; assay: Antiviral assay, HeLa-ACE2-TMPRSS2 cells, WK521; assay type: cell-based
[8] = tested on: SARS-CoV-2^WK521 in A549-ACE2-TMPRSS2 cells; assay: Antiviral assay, A549-ACE2-TMPRSS2 cells, WK521; assay type: cell-based
[9] = Pharmacokinetic study in PXB-mice (human liver-chimeric); details: 10 mg/kg; for Plasma concentration: PXB-mice, i.v. 10 mg/kg, individual mice

Compound: CC(C)(C)[C@H](NC(=O)C(F)(F)F)C(=O)N1C[C@H]2[C@@H]([C@H]1C(=O)N[C@H](C#N)C[C@@H]1CCNC1=O)C2(C)C [Nirmatrelvir, reference compound]
- inhibition at 0.000128 µM ([1]; 0.000128 µM): 0%
- inhibition at 0.00064 µM ([1]; 0.00064 µM): 0%
- inhibition at 0.0032 µM ([1]; 0.0032 µM): 0%
- inhibition at 0.08 µM ([1]; 0.08 µM): 0%
- inhibition at 0.4 µM ([1]; 0.4 µM): 0%
- EC95, Average [2]: 7.815
- EC95, individual assays [2]: 8.01 and 9.89 and 6.31 and 7.05
- SARS-CoV2 RNA VeroE6 cell-based assay EC95 [2]: 7810 ± 1550 nM
- EC50 ([2]; Severe acute respiratory syndrome coronavirus 2, Vero C1008, read-out: EC50, Average): 942 nM
- EC50 ([2]; Severe acute respiratory syndrome coronavirus 2, Vero C1008, read-out: EC50, VeroE6 + 2 µM CP100356): 25 nM
- EC50 ([2]; Severe acute respiratory syndrome coronavirus 2, Vero C1008, read-out: EC50, VeroE6 with CP100356, Average): 25 nM
- EC50 ([2]; Severe acute respiratory syndrome coronavirus 2, Vero C1008, read-out: EC50, VeroE6 with CP100356, individual assays): 22 nM
- EC50 ([2]; Severe acute respiratory syndrome coronavirus 2, Vero C1008, read-out: SARS-CoV2 RNA VeroE6 cell-based assay EC50): 940 ± 210 nM
- EC50 ([2]; read-out: EC50, Average): 1020 nM
- EC50 ([2]; read-out: EC50, VeroE6 with CP100356, individual assays): 27 nM
- EC50 ([2]; read-out: EC50, individual assays): 1090 nM and 700 nM and 1150 nM and 830 nM and 1470 nM
- EC50 ([3]; Severe acute respiratory syndrome coronavirus 2, Vero C1008, read-out: EC50 against KTKYX00012/ο BA.1): 1050 ± 61 nM
- EC50 ([3]; Severe acute respiratory syndrome coronavirus 2, Vero C1008, read-out: EC50 ο BA1, Average): 1050 nM
- EC50 ([3]; Severe acute respiratory syndrome coronavirus 2, Vero C1008, read-out: EC50 ο BA1, individual assays): 1100 nM
- EC50 ([3]; read-out: EC50 ο BA1, individual assays): 1060 nM and 980 nM
- EC50 ([4]; Severe acute respiratory syndrome coronavirus 2, Vero C1008, read-out: EC50 against TKYVS2037/ο BA.2): 1240 ± 125 nM
- EC50 ([4]; Severe acute respiratory syndrome coronavirus 2, Vero C1008, read-out: EC50 ο BA2, individual assays): 1230 nM
- EC50 ([4]; read-out: EC50 ο BA2, individual assays): 1120 nM and 1370 nM
- EC50 ([5]; Severe acute respiratory syndrome coronavirus 2, Vero C1008, read-out: EC50 against TKYTS14631/ο BA.5): 1080 ± 150 nM
- EC50 ([5]; Severe acute respiratory syndrome coronavirus 2, Vero C1008, read-out: EC50 ο BA5, Average): 1080 nM
- EC50 ([5]; Severe acute respiratory syndrome coronavirus 2, Vero C1008, read-out: EC50 ο BA5, individual assays): 999 nM
- EC50 ([5]; read-out: EC50 ο BA5, individual assays): 988 nM and 1250 nM
- EC50 ([6]; Severe acute respiratory syndrome coronavirus 2, Vero C1008, read-out: EC50 against UT-NCD1757-1N/ο BA.2.75): 967 ± 135 nM
- EC50 ([6]; Severe acute respiratory syndrome coronavirus 2, Vero C1008, read-out: EC50 ο BA2.75, Average): 967 nM
- EC50 ([6]; Severe acute respiratory syndrome coronavirus 2, Vero C1008, read-out: EC50 ο BA2.75, individual assays): 830 nM
- EC50 ([6]; read-out: EC50 ο BA2.75, individual assays): 970 nM and 1100 nM
- EC50 ([7]; Severe acute respiratory syndrome coronavirus 2, SARS-CoV-2^WK521, read-out: EC50, HeLa-ACE2-TMPRSS2): 240 ± 50 nM
- EC50 ([7]; Severe acute respiratory syndrome coronavirus 2, read-out: EC50, HeLa-AEC2-TMPRSS2, individual assays, source data): 300 nM
- EC50 ([7]; Severe acute respiratory syndrome coronavirus 2, source data, read-out: EC50, HeLa-AEC2-TMPRSS2, Average): 237 nM
- EC50 ([7]; read-out: EC50, HeLa-AEC2-TMPRSS2, individual assays, source data): 200 nM and 210 nM
- EC50 ([8]; Severe acute respiratory syndrome coronavirus 2, SARS-CoV-2^WK521, read-out: EC50, A549-ACE2-TMPRSS2): 17 ± 3 nM
- EC50 ([8]; Severe acute respiratory syndrome coronavirus 2, source data, read-out: EC50, A549-AEC2-TMPRSS2, Average): 17.4 nM
- EC50 ([8]; Severe acute respiratory syndrome coronavirus 2, source data, read-out: EC50, A549-AEC2-TMPRSS2, individual assays): 20 nM
- EC50 ([8]; source data, read-out: EC50, A549-AEC2-TMPRSS2, individual assays): 17.4 nM and 14.8 nM
- concentration at 10 min ([9]; PXB (human liver-chimeric), mouse, plasma, po, plasma concentration, 10 min, individual animals (3 per time point), LC/MS/MS): 1600 ng/mL
- concentration at 240 min ([9]; PXB (human liver-chimeric), mouse, plasma, po, plasma concentration, 240 min, individual animals (3 per time point), LC/MS/MS): 47.2 ng/mL
- concentration at 1440 min ([9]; PXB (human liver-chimeric), mouse, plasma, po, plasma concentration, 1440 min, individual animals (3 per time point), LC/MS/MS): 0.63 ng/mL
- Plasma concentration ([9]; 10 min): 5525.9 ng/mL and 4420.7 ng/mL
- Plasma concentration ([9]; 0.17 hr): 5530 ng/mL and 4420 ng/mL
- Plasma concentration ([9]; 60 min): 305.4 ng/mL and 496.6 ng/mL
- Plasma concentration ([9]; 1 hr): 310 ng/mL and 500 ng/mL
- Plasma concentration ([9]; 240 min): 10 ng/mL and 10.6 ng/mL and 46.3 ng/mL
- Plasma concentration ([9]; 4 hr): 0.01 µg/ml (2×) and 0.05 µg/ml
